Data as given in ChEMBL document CHEMBL2169775, “Tacrine-ferulic acid-nitric oxide (NO) donor trihybrids as potent, multifunctional acetyl- and butyrylcholinesterase inhibitors” (J Med Chem, 2012).
Activity calls are given as the source filed them. The rule behind the calls is not given here.

Legend:
[1] = biological target: Cholinesterase (Equus caballus, UniProt P81908)
Description: Inhibition of equine serum BuChE using butyrylthiocholine iodide as substrate after 5 mins by Ellman's method

[2] = biological target: Acetylcholinesterase (Electrophorus electricus, UniProt O42275)
Description: Inhibition of eel AChE using acetylthiocholine iodide as substrate after 5 mins by Ellman's method

[3] = system: Radical scavenging activity; test: Antioxidant activity assessed as DPPH free radical scavenging activity at 2 mM relative to ferulic acid; format: functional
[4] = system: Aorta; test: tissue or blood; details: Rattus norvegicus
Description: Vasorelaxant activity in rat aortic rings assessed as reduction of norepinephrine-induced contraction

[5] = Induction of NO release in phosphate buffer assessed as inorganic nitrite level at pH 7.4 at 10^-4 M measured at 30 mins by Griess assay in presence of L-cysteine; format: physicochemical; details: pH 7.4, 0.5 h, 100 µM
[6] = Induction of NO release in phosphate buffer assessed as inorganic nitrite level at pH 7.4 at 10^-4 M measured at 10 mins by Griess assay in presence of L-cysteine; format: physicochemical; details: pH 7.4, 10 min, 100 µM
[7] = biological target: Acetylcholinesterase (Electrophorus electricus) (UniProt O42275); test: Mixed inhibition of eel AChE using acetylthiocholine iodide as substrate at 1 to 10 nM after 4 mins by Lineweaver-Burk plot analysis
[8] = biological target: Cholinesterase (Equus caballus) (UniProt P81908); test: Competitive inhibition of equine serum BuChE using butyrylthiocholine iodide as substrate at 1 to 10 nM after 4 mins by Ellman's method
Sequence of Cholinesterase (Equus caballus) (P81908 whole entry): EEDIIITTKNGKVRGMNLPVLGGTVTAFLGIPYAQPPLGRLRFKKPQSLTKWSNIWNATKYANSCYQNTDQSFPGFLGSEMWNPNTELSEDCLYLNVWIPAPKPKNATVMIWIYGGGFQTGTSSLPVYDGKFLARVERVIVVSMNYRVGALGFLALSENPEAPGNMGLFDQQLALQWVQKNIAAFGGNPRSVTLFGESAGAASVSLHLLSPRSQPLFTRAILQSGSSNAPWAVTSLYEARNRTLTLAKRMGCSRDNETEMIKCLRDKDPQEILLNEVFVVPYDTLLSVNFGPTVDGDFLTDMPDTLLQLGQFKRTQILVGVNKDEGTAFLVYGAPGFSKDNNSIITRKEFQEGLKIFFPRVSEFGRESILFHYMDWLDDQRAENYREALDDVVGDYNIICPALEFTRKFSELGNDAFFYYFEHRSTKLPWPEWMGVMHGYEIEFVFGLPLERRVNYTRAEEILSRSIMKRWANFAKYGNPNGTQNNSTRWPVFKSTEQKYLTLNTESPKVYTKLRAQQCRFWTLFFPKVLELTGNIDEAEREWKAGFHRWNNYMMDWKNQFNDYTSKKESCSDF

Sequence of Cholinesterase (P81908 whole entry): as above
Sequence of Acetylcholinesterase (O42275 whole entry): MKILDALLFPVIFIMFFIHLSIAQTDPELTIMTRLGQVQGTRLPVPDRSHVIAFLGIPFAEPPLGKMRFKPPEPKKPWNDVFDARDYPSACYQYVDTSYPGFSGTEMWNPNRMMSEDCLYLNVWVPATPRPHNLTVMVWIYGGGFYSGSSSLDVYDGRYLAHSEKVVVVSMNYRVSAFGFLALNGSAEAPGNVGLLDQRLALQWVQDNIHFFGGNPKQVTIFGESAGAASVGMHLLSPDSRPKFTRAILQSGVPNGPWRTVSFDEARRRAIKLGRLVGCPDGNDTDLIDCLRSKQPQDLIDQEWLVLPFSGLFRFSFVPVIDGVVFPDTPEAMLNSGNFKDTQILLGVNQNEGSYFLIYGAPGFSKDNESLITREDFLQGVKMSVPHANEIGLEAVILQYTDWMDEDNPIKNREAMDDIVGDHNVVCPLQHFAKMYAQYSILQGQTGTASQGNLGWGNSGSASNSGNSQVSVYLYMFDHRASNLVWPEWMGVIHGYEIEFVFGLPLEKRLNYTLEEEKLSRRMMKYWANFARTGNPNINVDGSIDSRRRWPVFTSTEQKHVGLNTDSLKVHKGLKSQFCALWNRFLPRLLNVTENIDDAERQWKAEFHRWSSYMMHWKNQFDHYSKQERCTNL
Sequence of Acetylcholinesterase (Electrophorus electricus) (O42275 24-633 limits assumed): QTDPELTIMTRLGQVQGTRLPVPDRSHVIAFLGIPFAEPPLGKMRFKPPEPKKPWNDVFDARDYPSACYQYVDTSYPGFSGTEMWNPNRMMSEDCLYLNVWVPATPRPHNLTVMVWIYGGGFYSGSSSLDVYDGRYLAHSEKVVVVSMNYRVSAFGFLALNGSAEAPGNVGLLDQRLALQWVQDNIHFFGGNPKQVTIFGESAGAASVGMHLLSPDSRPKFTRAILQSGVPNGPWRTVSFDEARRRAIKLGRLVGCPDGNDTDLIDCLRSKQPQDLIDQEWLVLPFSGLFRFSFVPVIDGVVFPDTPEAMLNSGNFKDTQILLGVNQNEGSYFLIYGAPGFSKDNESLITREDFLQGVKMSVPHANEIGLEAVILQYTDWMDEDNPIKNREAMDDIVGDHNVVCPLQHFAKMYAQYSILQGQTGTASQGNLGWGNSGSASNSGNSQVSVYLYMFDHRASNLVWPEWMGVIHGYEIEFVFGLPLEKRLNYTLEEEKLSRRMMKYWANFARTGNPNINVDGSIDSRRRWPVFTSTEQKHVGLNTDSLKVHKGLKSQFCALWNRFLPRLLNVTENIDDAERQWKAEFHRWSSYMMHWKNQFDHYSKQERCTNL

Row | Structure (SMILES) | IC50 [1] [µM] | IC50 [2] [µM] | Activity [3] [%] | EC50 [4] [µM] | Activity [5] [µg/mL] | Activity [6] [µg/mL] | inhibition [7] | inhibition [8]
1 | COc1cc(/C=C/C(=O)NCCCCNc2c3c(nc4ccccc24)CCCC3)ccc1OCCO[N+](=O)[O-] | 0.0202 | 0.0221 | < 1 | – | – | – | – | –
2 | COc1cc(/C=C/C(=O)NCCCNc2c3c(nc4ccccc24)CCCC3)ccc1OCCCO[N+](=O)[O-] | 0.0177 | 0.0109 | < 1 | 34.3 | 0.305 | 0.241 | Active | Active
3 | COc1cc(/C=C/C(=O)NCCNc2c3c(nc4ccccc24)CCCC3)ccc1OCCCO[N+](=O)[O-] | 0.0084 | 0.0199 | < 1 | – | – | – | – | –
4 | COc1cc(/C=C/C(=O)NCCCCCCCCNc2c3c(nc4ccccc24)CCCC3)ccc1O | 0.0274 | 0.0169 | – | – | – | – | – | –
5 | NCCCCNc1c2c(nc3ccccc13)CCCC2 | 0.0229 | 0.0393 | – | – | – | – | – | –
6 | COc1cc(/C=C/C(=O)NCCCNc2c3c(nc4ccccc24)CCCC3)ccc1OCCCCCCO[N+](=O)[O-] | 0.0193 | 0.0218 | < 1 | – | – | – | – | –
7 | NCCCCCCNc1c2c(nc3ccccc13)CCCC2 | 0.0066 | 0.0237 | – | – | – | – | – | –
8 | NCCCCCCCCNc1c2c(nc3ccccc13)CCCC2 | 0.0028 | 0.0029 | – | – | – | – | – | –
9 | COc1cc(/C=C/C(=O)NCCNc2c3c(nc4ccccc24)CCCC3)ccc1OCCO[N+](=O)[O-] | 0.0105 | 0.0172 | < 1 | 48.8 | – | – | – | –
10 | COc1cc(/C=C/C(=O)NCCCCCCNc2c3c(nc4ccccc24)CCCC3)ccc1OCCCO[N+](=O)[O-] | 0.0056 | 0.0044 | < 1 | – | – | – | – | –
11 | COc1cc(/C=C/C(=O)O)ccc1OCCCCCCO[N+](=O)[O-] | > 10 | > 10 | – | – | – | – | – | –
12 | COc1cc(/C=C/C(=O)NCCCNc2c3c(nc4ccccc24)CCCC3)ccc1OCCCCO[N+](=O)[O-] | 0.0062 | 0.0036 | < 1 | – | – | – | – | –
13 | CCCOc1ccc(/C=C/C(=O)NCCCNc2c3c(nc4ccccc24)CCCC3)cc1OC | 0.0403 | 0.0698 | – | 838 | – | – | – | –
14 | COc1cc(/C=C/C(=O)NCCCNc2c3c(nc4ccccc24)CCCC3)ccc1O | 0.0311 | 0.0567 | – | 2050 | – | – | – | –
15 | COc1cc(/C=C/C(=O)NCCCCCCNc2c3c(nc4ccccc24)CCCC3)ccc1OCCCCO[N+](=O)[O-] | 0.0014 | 0.0037 | < 1 | – | – | – | – | –
16 | COc1cc(/C=C/C(=O)NCCCCCCCCNc2c3c(nc4ccccc24)CCCC3)ccc1OCCCCCCO[N+](=O)[O-] | 0.0019 | 0.0108 | < 1 | – | – | – | – | –
17 | COc1cc(/C=C/C(=O)NCCCCCCNc2c3c(nc4ccccc24)CCCC3)ccc1OCCO[N+](=O)[O-] | 0.0052 | 0.0083 | < 1 | – | – | – | – | –
18 | COc1cc(/C=C/C(=O)NCCCCNc2c3c(nc4ccccc24)CCCC3)ccc1OCCCCCCO[N+](=O)[O-] | 0.0117 | 0.0279 | < 1 | – | – | – | – | –

Row | Structure (SMILES) | IC50 [1] [µM] | IC50 [2] [µM] | Activity [3] [%] | EC50 [4] [µM] | Activity [5] [µg/mL] | Activity [6] [µg/mL] | inhibition [7] | inhibition [8]
19 | COc1cc(/C=C/C(=O)NCCCNc2c3c(nc4ccccc24)CCCC3)ccc1OCCO[N+](=O)[O-] | 0.0249 | 0.0144 | < 1 | – | – | – | – | –
20 | COc1cc(/C=C/C(=O)O)ccc1OCCCCO[N+](=O)[O-] | > 10 | > 10 | – | – | – | – | – | –
21 | NCCCNc1c2c(nc3ccccc13)CCCC2 | 0.0197 | 0.0795 | – | – | – | – | – | –
22 | COc1cc(/C=C/C(=O)NCCCCNc2c3c(nc4ccccc24)CCCC3)ccc1O | 0.0098 | 0.0111 | – | – | – | – | – | –
23 | COc1cc(/C=C/C(=O)NCCCCNc2c3c(nc4ccccc24)CCCC3)ccc1OCCCO[N+](=O)[O-] | 0.0236 | 0.0443 | < 1 | – | – | – | – | –
24 | COc1cc(/C=C/C(=O)NCCNc2c3c(nc4ccccc24)CCCC3)ccc1OCCCCCCO[N+](=O)[O-] | 0.0218 | 0.0406 | < 1 | – | – | – | – | –
25 | COc1cc(/C=C/C(=O)NCCCCNc2c3c(nc4ccccc24)CCCC3)ccc1OCCCCO[N+](=O)[O-] | 0.0047 | 0.0195 | < 1 | – | – | – | – | –
26 | COc1cc(/C=C/C(=O)NCCCCCCNc2c3c(nc4ccccc24)CCCC3)ccc1OCCCCCCO[N+](=O)[O-] | 0.002 | 0.0048 | < 1 | – | – | – | – | –
27 | COc1cc(/C=C/C(=O)NCCCCCCCCNc2c3c(nc4ccccc24)CCCC3)ccc1OCCCO[N+](=O)[O-] | 0.001 | 0.0101 | < 1 | – | – | – | – | –
28 | COc1cc(/C=C/C(=O)NCCNc2c3c(nc4ccccc24)CCCC3)ccc1O | 0.0375 | 0.062 | – | – | – | – | – | –
29 | COc1cc(/C=C/C(=O)O)ccc1OCCCO[N+](=O)[O-] | > 10 | > 10 | – | – | – | – | – | –
30 | COc1cc(/C=C/C(=O)NCCNc2c3c(nc4ccccc24)CCCC3)ccc1OCCCCO[N+](=O)[O-] | 0.0076 | 0.0271 | < 1 | – | – | – | – | –
31 | COc1cc(/C=C/C(=O)NCCCCCCCCNc2c3c(nc4ccccc24)CCCC3)ccc1OCCO[N+](=O)[O-] | 0.0016 | 0.0055 | < 1 | 234 | 0.275 | 0.145 | – | –
32 | COc1cc(/C=C/C(=O)O)ccc1OCCO[N+](=O)[O-] | > 10 | > 10 | – | – | – | – | – | –
33 | NCCNc1c2c(nc3ccccc13)CCCC2 | 0.0309 | 0.0714 | – | – | – | – | – | –
34 | COc1cc(/C=C/C(=O)NCCCCCCCCNc2c3c(nc4ccccc24)CCCC3)ccc1OCCCCO[N+](=O)[O-] | 0.0018 | 0.0094 | < 1 | – | – | – | – | –
35 | O=[N+]([O-])O[C@H]1CO[C@H]2[C@@H]1OC[C@H]2O[N+](=O)[O-] [ISOSORBIDE DINITRATE] | – | – | – | 25.2 | – | – | – | –
36 | COc1cc(/C=C/C(=O)NCCCCCCNc2c3c(nc4ccccc24)CCCC3)ccc1O | 0.0263 | 0.0127 | 64.7 | – | – | – | – | –
